What all share (test): biochemical
What all share (parameters): Upstate KinaseProfiler in vitro kinase activity assay, per cent of DMSO control
Holding throughout (details): read-out: Activity (% of Control)

For experiment [1], the target named is T1, ALK4(h) (Homo sapiens, UniProt P36896).
T1 construct: gene ACVR1B
As to the method:
(§1) Kinase profile and kinase assay. A Kinase profile against 100 kinases listed for resveratrol at 20 μM was generated utilizing Upstate's KinaseProfiler™ service. Assay protocols for each kinase are available from Upstate (Lake Placid, NY). In vitro kinase assay was performed as described previously. Briefly, HEK293 cells were transfected with HA-S6K1 wt, HA-S6K1 K100R, or vector as indicated. Cells were treated with 1 μg/ml insulin for 10 minutes prior to harvesting in PBS + 0.5% NP-40 + protease and phosphatase inhibitors. 125 μg of lysate per sample was immunoprecipitated using 0.5 μg/sample of anti-HA High-Affinity (Roche, Basel Switzerland). Beads from immunoprecipitations were washed three times in lysis buffer and once in kinase buffer, and kinase assays were performed with recombinant GST-S6 as substrate (1 μg per assay). In the indicated lanes varying doses of resveratrol or DMSO control were added to the reaction prior to addition of the GST-S6 substrate. All samples were subjected to SDS-PAGE, and 32P incorporation was quantified by using a Bio-Rad (Hercules, CA) Phosphor-Imager and subsequent analysis with ImageJ (NIH).  Figure 4. Resveratrol inhibits S6K1 in vitro. (A) Structural similarity between resveratrol and quercetin, a known kinase inhibitor. (B) Kinase inhibition profile for resveratrol at 20 μM obtained using KinaseProfiler™ (Upstate). Dashed line represents 100% activity as compared to control. Black filled-in bar on the graph indicates S6K1. Complete data set is provided in Supplementary Table 1. Error bars represent s.d.m. (C) Phosphorylation of recombinant GST-tagged S6 by immunoprecipitated HA-S6K1 under increasing concentrations of resveratrol (Res). Autoradiograph depicts S6K1 phosphorylation of GST-S6. (D) Average of three separate kinase assay experiments as performed in (C). Densitometry was performed using NIH ImageJ. Error bars represent s.e.m. […] Therefore, we hypothesized that the effect of resveratrol on autophagy could be related to inhibition of one or more upstream kinases. To test this, we performed an in vitro kinase screen and determined an inhibition profile for resveratrol. […] With the exception of S6K1, these kinases play primary roles in the hematopoietic system, and were thus viewed as unlikely to have been responsible for the effect we were studying. […] On the other hand, S6K1 is known to play a requisite role in the regulation of autophagy in Drosophila, making it a promising candidate for the in vivo target of resveratrol that is responsible for inhibition of autophagy.

Experiment [2] concerns the target CDK1/cyclinB(h) (Homo sapiens, UniProt P06493). As to the method: as §1
In experiment [3] the target is CDK9/cyclin T1(h) (Homo sapiens, UniProt P50750). As to the method: as §1
Experiment [4] concerns the target T2, IKKα(h) (Homo sapiens, UniProt O15111).
T2 construct: gene CHUK
As to the method:
as §1

Experiment [5] addresses IRAK1(h) (Homo sapiens, UniProt P51617). As to the method: as §1
The target in experiment [6] is T3, LKB1(h) (Homo sapiens, UniProt Q15831).
T3 construct: gene STK11
The protocol:
as §1

Experiment [7] has as its target Met(h) (Homo sapiens, UniProt P08581). As to the method:
as §1

Experiment [8] deals with PAK2(h) (Homo sapiens, UniProt Q13177). As to the method: as §1
PAK2(h), sequence (Q13177 whole entry): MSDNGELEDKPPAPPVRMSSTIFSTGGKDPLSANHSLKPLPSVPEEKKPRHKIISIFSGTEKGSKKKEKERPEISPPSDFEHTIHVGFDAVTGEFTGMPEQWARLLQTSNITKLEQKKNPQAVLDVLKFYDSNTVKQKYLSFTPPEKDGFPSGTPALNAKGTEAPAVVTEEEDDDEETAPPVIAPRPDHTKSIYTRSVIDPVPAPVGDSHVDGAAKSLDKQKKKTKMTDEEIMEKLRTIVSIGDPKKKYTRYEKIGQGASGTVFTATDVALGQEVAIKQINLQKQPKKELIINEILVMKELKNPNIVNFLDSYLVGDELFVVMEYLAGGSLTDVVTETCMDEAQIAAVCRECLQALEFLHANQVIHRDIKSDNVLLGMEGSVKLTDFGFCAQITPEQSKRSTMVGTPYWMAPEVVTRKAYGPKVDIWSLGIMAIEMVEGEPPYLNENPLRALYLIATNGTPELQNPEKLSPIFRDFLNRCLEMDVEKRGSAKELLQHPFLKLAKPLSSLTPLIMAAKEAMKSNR
Experiment [9] has as its target PAK3(h) (Homo sapiens, UniProt O75914). As to the method: as §1
Experiment [10] deals with T4, PKBß(h) (Homo sapiens, UniProt P31751).
T4 construct: gene AKT2
T4 sequence (P31751 whole entry): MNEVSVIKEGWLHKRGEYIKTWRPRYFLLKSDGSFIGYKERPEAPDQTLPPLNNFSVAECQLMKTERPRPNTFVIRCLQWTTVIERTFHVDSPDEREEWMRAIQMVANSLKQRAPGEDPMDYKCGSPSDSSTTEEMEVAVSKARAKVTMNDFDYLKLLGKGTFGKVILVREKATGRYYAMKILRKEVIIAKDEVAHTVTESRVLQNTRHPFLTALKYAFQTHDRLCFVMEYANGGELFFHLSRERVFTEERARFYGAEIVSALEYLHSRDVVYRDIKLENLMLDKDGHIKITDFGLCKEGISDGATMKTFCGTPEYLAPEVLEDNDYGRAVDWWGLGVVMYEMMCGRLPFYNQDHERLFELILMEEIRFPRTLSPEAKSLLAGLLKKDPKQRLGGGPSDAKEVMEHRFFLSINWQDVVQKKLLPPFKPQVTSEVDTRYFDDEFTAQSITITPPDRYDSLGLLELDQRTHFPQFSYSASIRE
The protocol: as §1

The target of experiment [11] is T5, PKBα(h) (Homo sapiens, UniProt P31749).
T5 construct: gene AKT1
T5 sequence (P31749 whole entry): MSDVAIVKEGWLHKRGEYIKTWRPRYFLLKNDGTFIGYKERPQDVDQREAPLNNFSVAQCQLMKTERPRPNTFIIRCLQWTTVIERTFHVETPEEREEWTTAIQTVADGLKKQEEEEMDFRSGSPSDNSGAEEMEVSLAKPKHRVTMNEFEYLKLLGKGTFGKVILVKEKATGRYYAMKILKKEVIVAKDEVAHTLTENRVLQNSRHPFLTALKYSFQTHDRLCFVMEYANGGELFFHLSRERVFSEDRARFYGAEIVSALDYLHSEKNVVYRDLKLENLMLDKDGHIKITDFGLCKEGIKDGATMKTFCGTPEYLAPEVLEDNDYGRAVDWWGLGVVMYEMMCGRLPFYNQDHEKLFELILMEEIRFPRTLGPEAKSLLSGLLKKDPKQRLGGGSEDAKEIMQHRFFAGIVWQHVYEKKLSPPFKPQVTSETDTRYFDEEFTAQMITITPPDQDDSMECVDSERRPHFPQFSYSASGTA
As to the method:
as §1

Experiment [12] addresses T6, PKCθ(h) (Homo sapiens, UniProt Q04759).
T6 construct: gene PRKCQ
The protocol:
as §1

Experiment [13] deals with T7, Pim-2 (Homo sapiens, UniProt Q9P1W9).
T7 construct: gene PIM2
T7 sequence (Q9P1W9 whole entry): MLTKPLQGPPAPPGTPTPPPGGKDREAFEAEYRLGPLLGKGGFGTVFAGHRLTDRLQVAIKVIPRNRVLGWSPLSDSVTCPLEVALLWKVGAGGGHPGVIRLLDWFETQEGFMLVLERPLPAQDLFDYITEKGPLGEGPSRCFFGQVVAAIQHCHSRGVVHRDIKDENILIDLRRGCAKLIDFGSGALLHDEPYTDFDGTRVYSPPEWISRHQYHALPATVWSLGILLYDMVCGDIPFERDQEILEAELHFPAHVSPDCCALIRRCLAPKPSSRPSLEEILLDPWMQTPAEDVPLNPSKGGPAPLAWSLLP
The protocol: as §1

The target of experiment [14] is Plk3(h) (Homo sapiens, UniProt Q9H4B4). The protocol: as §1
Experiment [15] deals with T8, Ros(h) (Homo sapiens, UniProt P08922).
T8 construct: gene ROS1
The protocol: as §1

Experiment [16] concerns the target T9, Rsk1(h) (Homo sapiens, UniProt Q15418).
T9 construct: gene RPS6KA1
As to the method: as §1

The target of experiment [17] is T10, SAPK2b(h) (Homo sapiens, UniProt Q15759).
T10 construct: gene MAPK11
The protocol:
as §1

For experiment [18], the target named is T11, ZAP-70(h) (Homo sapiens, UniProt P43403).
T11 construct: gene ZAP70
T11 sequence (P43403 whole entry): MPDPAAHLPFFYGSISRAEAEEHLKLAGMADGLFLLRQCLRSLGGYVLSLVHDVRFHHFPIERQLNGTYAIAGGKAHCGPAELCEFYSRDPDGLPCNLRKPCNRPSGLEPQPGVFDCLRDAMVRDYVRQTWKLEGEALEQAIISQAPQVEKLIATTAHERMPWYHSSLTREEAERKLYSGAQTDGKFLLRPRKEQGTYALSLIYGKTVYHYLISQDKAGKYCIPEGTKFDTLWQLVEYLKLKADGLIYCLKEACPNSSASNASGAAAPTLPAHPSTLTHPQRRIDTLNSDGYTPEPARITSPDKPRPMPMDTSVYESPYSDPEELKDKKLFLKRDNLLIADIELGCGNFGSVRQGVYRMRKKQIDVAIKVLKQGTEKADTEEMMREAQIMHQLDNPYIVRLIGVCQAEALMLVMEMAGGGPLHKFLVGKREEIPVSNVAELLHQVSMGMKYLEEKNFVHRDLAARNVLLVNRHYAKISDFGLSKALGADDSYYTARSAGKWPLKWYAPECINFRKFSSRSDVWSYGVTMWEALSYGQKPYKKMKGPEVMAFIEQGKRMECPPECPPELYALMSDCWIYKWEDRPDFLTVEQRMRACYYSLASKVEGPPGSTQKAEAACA
The protocol: as §1

Among the data in article PMC2806030, “Inhibition of mammalian S6 kinase by resveratrol suppresses autophagy” (Aging (Albany NY), 2009) are remaining activity values, retold here.

Each structure is given as a SMILES string.

T1 sequence (P36896 whole entry): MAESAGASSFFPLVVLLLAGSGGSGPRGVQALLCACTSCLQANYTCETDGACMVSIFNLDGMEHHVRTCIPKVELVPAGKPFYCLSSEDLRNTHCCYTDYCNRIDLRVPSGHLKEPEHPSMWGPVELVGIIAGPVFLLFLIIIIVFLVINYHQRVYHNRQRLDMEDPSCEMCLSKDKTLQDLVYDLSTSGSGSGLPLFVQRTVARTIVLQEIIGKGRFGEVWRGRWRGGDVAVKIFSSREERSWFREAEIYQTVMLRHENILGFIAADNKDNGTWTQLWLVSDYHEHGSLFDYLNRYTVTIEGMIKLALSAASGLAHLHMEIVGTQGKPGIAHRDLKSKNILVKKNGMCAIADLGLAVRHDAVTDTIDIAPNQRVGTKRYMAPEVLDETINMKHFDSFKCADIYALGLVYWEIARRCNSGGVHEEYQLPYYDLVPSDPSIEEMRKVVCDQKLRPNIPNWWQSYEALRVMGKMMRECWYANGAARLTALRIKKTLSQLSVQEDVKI
IRAK1(h), sequence (P51617 whole entry): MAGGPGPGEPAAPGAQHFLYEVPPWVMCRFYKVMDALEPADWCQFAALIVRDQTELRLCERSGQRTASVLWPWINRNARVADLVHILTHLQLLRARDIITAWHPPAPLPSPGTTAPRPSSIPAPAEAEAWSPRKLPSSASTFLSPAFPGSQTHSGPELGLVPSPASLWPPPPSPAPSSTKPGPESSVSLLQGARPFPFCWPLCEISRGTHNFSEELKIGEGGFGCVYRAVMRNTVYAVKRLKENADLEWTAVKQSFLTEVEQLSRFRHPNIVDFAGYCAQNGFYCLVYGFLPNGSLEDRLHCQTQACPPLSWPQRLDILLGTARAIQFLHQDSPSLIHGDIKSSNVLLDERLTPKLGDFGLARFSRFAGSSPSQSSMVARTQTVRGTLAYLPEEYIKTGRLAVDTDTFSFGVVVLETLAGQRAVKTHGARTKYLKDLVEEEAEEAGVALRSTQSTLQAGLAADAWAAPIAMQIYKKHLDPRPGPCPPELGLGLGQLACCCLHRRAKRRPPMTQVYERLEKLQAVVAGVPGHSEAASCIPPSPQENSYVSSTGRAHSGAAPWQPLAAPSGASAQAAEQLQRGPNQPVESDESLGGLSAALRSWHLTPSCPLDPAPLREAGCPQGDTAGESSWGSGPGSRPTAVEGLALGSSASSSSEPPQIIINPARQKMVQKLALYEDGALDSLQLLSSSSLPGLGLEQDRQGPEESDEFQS
Met(h), sequence (P08581 whole entry): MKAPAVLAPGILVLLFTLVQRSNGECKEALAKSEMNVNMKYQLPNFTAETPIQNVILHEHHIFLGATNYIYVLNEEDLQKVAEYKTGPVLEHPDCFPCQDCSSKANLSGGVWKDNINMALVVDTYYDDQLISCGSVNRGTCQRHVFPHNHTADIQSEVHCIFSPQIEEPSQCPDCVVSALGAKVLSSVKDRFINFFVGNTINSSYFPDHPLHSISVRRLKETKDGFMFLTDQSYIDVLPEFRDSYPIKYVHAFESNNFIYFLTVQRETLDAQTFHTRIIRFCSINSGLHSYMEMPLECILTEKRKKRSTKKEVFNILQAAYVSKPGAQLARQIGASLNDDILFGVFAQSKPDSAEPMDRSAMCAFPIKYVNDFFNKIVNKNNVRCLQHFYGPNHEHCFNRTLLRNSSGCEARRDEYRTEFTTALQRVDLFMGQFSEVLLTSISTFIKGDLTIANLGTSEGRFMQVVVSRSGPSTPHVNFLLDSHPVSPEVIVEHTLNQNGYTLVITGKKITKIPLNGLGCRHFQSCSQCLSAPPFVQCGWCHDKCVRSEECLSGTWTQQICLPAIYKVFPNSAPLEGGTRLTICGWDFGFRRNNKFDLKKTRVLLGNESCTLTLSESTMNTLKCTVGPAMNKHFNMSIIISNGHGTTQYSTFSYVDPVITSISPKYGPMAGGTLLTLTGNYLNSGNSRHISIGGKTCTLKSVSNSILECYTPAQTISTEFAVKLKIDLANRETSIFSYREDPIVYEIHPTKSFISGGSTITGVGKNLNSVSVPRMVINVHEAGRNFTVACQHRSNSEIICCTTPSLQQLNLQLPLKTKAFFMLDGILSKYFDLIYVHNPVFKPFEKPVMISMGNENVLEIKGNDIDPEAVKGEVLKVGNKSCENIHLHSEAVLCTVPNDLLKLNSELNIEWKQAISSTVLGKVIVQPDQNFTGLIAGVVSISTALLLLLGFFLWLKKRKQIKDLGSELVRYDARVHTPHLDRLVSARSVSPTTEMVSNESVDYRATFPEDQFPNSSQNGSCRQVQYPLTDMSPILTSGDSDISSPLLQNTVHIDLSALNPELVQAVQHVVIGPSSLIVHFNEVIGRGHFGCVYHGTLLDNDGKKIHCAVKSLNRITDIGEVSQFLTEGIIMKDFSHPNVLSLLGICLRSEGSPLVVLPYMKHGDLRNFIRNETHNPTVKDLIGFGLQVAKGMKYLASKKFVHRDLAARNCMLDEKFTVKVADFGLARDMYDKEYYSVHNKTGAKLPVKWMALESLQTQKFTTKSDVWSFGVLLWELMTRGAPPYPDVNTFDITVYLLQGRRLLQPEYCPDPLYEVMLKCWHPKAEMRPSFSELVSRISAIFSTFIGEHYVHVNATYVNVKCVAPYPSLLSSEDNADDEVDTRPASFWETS

`Oc1ccc(/C=C/c2cc(O)cc(O)c2)cc1` [Res, resveratrol]: the remaining activity at 20 µM is 110 ± 3% in experiment [1]; 67 ± 3% in experiment [2]; 70 ± 3% in experiment [3]; 40 ± 1% in experiment [4]; 97% in experiment [5]; 102 ± 3% in experiment [6]. Further, the remaining activity at 20 µM in experiment [7] came to 114 ± 5%; in experiment [8], 98 ± 4%; in experiment [9], 46%; in experiment [10] it was 105 ± 3%; in experiment [11] it was 94 ± 2%; in experiment [12], 99 ± 5%. The remaining activity at 20 µM amounted to 14 ± 2% in experiment [13]; 95 ± 9% in experiment [14]; 102 ± 4% in experiment [15]; 70 ± 1% in [16]; 100 ± 1% in experiment [17]; 141 ± 2% in experiment [18].
